This passage reports TGI results from PubChem BioAssay (NCI).

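Briefly, cells in 96-well plates were exposed to five compound concentrations for 48 h, and endpoints were estimated by linear interpolation. TGI marks complete inhibition of growth.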

Assay [1] deals with K-562 leukemia. Kind of assay: NCI tumour cell line growth inhibition, 48 h.
In assay [2] the test system is CAKI-1 renal. Kind of assay: NCI tumour cell line growth inhibition, 48 h.

As to `CN1N=C(c2ccccc2)C(C(c2ccccc2[N+](=O)[O-])C2C(=O)N(C)N=C2c2ccccc2)C1=O` (stereo not given), the TGI in assay [1] and in assay [2] was greater than 100 µM each time.

On to `CCOC(=O)c1nc2ccc(C(F)(F)F)cc2nc1Nc1ccc(F)cc1`, for which the TGI in assay [1] and in assay [2] was greater than 100 µM in each case.

Take `CCN(CC)C(=S)SC1C(=O)NC(=O)NC1=O`: the TGI in assay [1] and in assay [2] was greater than 100 µM throughout. For `COC(=O)n1c(C)c(C=O)c2ccc(OC)cc21`, the TGI is greater than 100 µM in assay [1] and 87.9 µM in assay [2]. As to `NC(N)=NS(=O)(=O)c1ccc(NNC(=O)c2cccc3c(=O)c4ccccc4[nH]c23)cc1`, the TGI in assay [1] worked out at 53 µM; in assay [2] it was 94.6 µM. Regarding `COc1cc(C(c2cccc3ccccc23)N2C(=O)CCC2C(=O)O)cc(OC)c1OC` (stereo not given), the TGI in assay [1] and in assay [2] was greater than 100 µM each time. With `CCOC(=O)[C@@H]1ON2O[C@H](OC3CCCCC3c3ccccc3)C[C@H]3OC(=O)[C@@H]1C32` (stereo not given in full), the TGI in assay [1] and in assay [2] was greater than 100 µM each time. Regarding `CC(=O)OCC1OC(n2c(N)c(C#N)c(C)c(C#N)c2=S)C(OC(C)=O)C(OC(C)=O)C1OC(C)=O` (stereo not given), the TGI in assay [2] is greater than 100 µM. As for `Cc1cc(S(=O)(=O)Nc2n[nH]c(Nc3ccc4ccccc4c3)n2)c(S)cc1Cl`, the results for the TGI in assay [1] and in assay [2] were greater than 100 µM and 91 µM, respectively. Turning to `COc1cc(C(C[N+](=O)[O-])SC(C)=O)ccc1OCc1ccccc1` (stereo not given), the values for the TGI in assay [1] and in assay [2] were 5.45 µM and 27.7 µM, respectively.

`CCOC(=O)CCC(NC(=O)C(N)c1ccc([N+](=O)[O-])cc1)C(=O)NC(CCC(=O)OCC)C(=O)OCC` (stereo not given) came in with a TGI in assay [1] greater than 100 µM. `CCOC(=O)N(C)C(=C(F)F)C(F)(F)F`: the TGI in assay [1] came to 62.1 µM. With `COC1CC(C)([N+](=O)[O-])C(O)C(C)O1` (stereo not given), the TGI in assay [1] and in assay [2] was greater than 100 µM throughout. For `COc1cccc(C=C2N=C(c3ccccc3)N(n3c(-c4ccccc4)nc4ccccc4c3=O)C2=O)c1`, the TGI in assay [1] and in assay [2] was greater than 100 µM in each case. Consider `CCN(CC)CCCNc1ccc([N+](=O)[O-])c2nc3ccc(OC)cc3c(N)c12`, for which the figures for the TGI in assay [1] and in assay [2] were 4.79 µM and greater than 10 µM, respectively. Regarding `O=C1C2Cc3c(n(C(=O)c4ccccc4)c4ccccc34)CC2C(=O)N1c1ccc(Nc2ccc(N3C(=O)C4Cc5c(n(C(=O)c6ccccc6)c6ccccc56)CC4C3=O)cc2)cc1` (stereo not given), the TGI in assay [1] and in assay [2] was greater than 100 µM throughout. On to `CCOC(=O)c1nc2ccccc2nc1Oc1ccc(C#N)cc1`, for which the TGI in assay [1] is greater than 100 µM. Consider `CCN(CC)c1ccc2cc(C(=O)NCc3ccccc3)c(=N)oc2c1`, for which the TGI in assay [1] was greater than 26 µM; in assay [2], greater than 100 µM. `NC(=O)c1nnsc1NN=O`: the TGI in assay [1] and in assay [2] was greater than 100 µM throughout. For `NC(=O)C(=CNC(=S)Nc1ccc(S(=O)(=O)Nc2ccccn2)cc1)C(N)=O`, the TGI in assay [1] and in assay [2] was greater than 100 µM throughout.

On to `Oc1cnc2c(O)cccc2c1`, for which the TGI in assay [1] was greater than 100 µM. With `CC(C)[Si]1(C(C)C)OCC2OC(n3c(C(=O)c4ccccc4)cc(=O)[nH]c3=O)CC2O[Si](C(C)C)(C(C)C)O1` (stereo not given), the figures for the TGI in assay [1] and in assay [2] were greater than 100 µM and 17.9 µM, respectively. In assay [1], `CCc1cc2c(c3c1CCCC3)CC1(Cc3ccc(C(=O)OC)cc3C1)C2` (stereo not given) came in with a TGI greater than 100 µM. On to `N#Cc1ncn(CCO)c1N`, for which the TGI in assay [1] and in assay [2] was greater than 100 µM in each case. Take `Cc1nc(C)c(N2CCN(C(=O)O)CC2)c(=O)[nH]1`: the TGI in assay [1] and in assay [2] was greater than 100 µM each time. Regarding `CC1(C)S[C@H](CN)N[C@H]1C(=O)OC(c1ccccc1)c1ccccc1`, the values for the TGI in assay [1] and in assay [2] were 55.8 µM and greater than 100 µM, respectively. `O=C1NC(=S)NC(=O)C1=Cc1ccc(-c2ccccc2)cc1`: the TGI in assay [1] and in assay [2] was greater than 100 µM each time.

As for `Cc1cc(S(=O)(=O)NC2=NCCN2Cc2ccccc2)c(S)cc1Cl`, the TGI in assay [1] and in assay [2] was greater than 100 µM each time. `CC(C)CC(NP(=O)(O)OC1OC(C)C(O)C(O)C1O)C(=O)NC(Cc1c[nH]c2ccccc12)C(=O)O` (stereo not given): the TGI in assay [1] and in assay [2] was greater than 100 µM each time. For `CCN(CC)c1ccc(C2Nc3ccc4ccccc4c3C3=C2C(=O)CCC3)cc1` (stereo not given), the TGI in assay [1] and in assay [2] was greater than 100 µM each time. With `CC(=O)Oc1c(OC(C)C)c(C)c(O[Si](C(C)C)(C(C)C)C(C)C)c2[nH]c3ccccc3c12`, the TGI in assay [1] and in assay [2] was greater than 100 µM throughout.

Turning to `COc1cc(/C=N/c2ccccn2)cc(OC)c1OC`, the TGI in assay [1] and in assay [2] was greater than 100 µM throughout. As for `C[C@@H]1CCC2C(C)(C)C(/C=C\C=O)C3(C)OC213` (stereo not given in full), the TGI in assay [1] and in assay [2] was greater than 100 µM in each case. `C=C1C(=O)O[C@H]2C/C(C)=C/CC[C@]3(C)CCC[C@](C)(CC[C@@H]12)O3`: the TGI in assay [1] came out at 18.8 µM; in assay [2], 25.7 µM. In the case of `CC(C)CCC[C@@H](C)C1CCC2[C@@H]3CCC4C[C@@H](NS(C)(=O)=O)CC[C@]4(C)C3CC[C@@]21C` (stereo not given in full), the TGI in assay [1] and in assay [2] was greater than 100 µM throughout. Turning to `OC(Cc1ccc2ccccc2n1)(C(F)(F)Cl)C(F)(F)Cl`, the TGI in assay [1] and in assay [2] was greater than 10 µM in each case.

`COC(=O)c1nn2ccc3ccccc3c2c1C(=O)OC`: the TGI in assay [1] and in assay [2] was greater than 100 µM each time. With `O=C(O)C1CCCCN1C(=O)Cc1c[nH]c2ccccc12` (stereo not given), the TGI in assay [1] and in assay [2] was greater than 100 µM throughout.

For the compound `CN=C(N)N=Nc1c(O)[nH]c2ccccc12`, the TGI in assay [1] and in assay [2] was greater than 100 µM each time. As to `N/C(=N\N=C\c1cc(I)cc(I)c1O)NO`, the TGI in assay [1] and in assay [2] was greater than 100 µM in each case. For the compound `CC(C)CC1c2[nH]c3ccccc3c2C[C@H]2C(=O)NC(CCCCNC(=O)OC(C)(C)C)C(=O)N12` (stereo not given in full), the TGI in assay [1] and in assay [2] was greater than 100 µM each time. Consider `CSC1=C(C(=O)Nc2ccc(C)cc2)C(N)=NC1=O`, for which the TGI in assay [1] and in assay [2] was greater than 100 µM each time. With `O=C(Cn1c(=O)oc2ccc(C(=O)c3ccc(F)cc3)cc21)c1ccccc1`, the TGI in assay [1] and in assay [2] was greater than 100 µM in each case. Regarding `NS(=O)(=O)c1nnc(NC(=O)c2cccc([N+](=O)[O-])c2)s1`, the TGI in assay [1] and in assay [2] was greater than 100 µM in each case. As for `CC(=O)C1(C)CC(C#N)(C#N)C(C#N)=C1N` (stereo not given), the TGI in assay [1] and in assay [2] was greater than 100 µM each time. For `CCO/C(O)=C(/C(=N)N1CCCC1)C(=O)Nc1cccc(Cl)c1`, the TGI in assay [1] and in assay [2] was greater than 100 µM each time.

`CCCCCCNC(=S)N/N=C(\C)c1ccccn1` returned a TGI in assay [2] of 40.4 µM. As to `NC(=O)NNCc1c(-c2ccccc2)no[n+]1[O-]`, the TGI in assay [1] and in assay [2] was greater than 100 µM in each case. For `CN(C)/C=N\c1nncc2[nH]cnc12`, the TGI in assay [1] and in assay [2] was greater than 100 µM in each case. As to `COc1cc(C2c3[nH]c4ccccc4c3[C@@H](Nc3ccc(C#N)cc3)[C@H]3COC(=O)N23)cc(OC)c1O` (stereo not given in full), the TGI in assay [1] was greater than 10 µM; in assay [2], 1.78 µM. For the compound `CCCCOCOc1ccccc1P1(=O)COc2ccccc2OC1`, the TGI in assay [1] and in assay [2] was greater than 100 µM throughout. As to `CSc1nn(C)cc2nc(C)nc1-2`, the TGI in assay [1] and in assay [2] was greater than 100 µM each time. As to `O=[N+]([O-])c1ccc(C2=NOC(c3ccc(Cl)cc3)N2C23CC4CC(CC(C4)C2)C3)cc1` (stereo not given), the TGI in assay [1] and in assay [2] was greater than 100 µM in each case.

With `CCOC(=O)c1nc2ccccc2nc1Nc1ccc(OC)cc1`, the TGI in assay [1] is greater than 100 µM; in assay [2], 56.6 µM.

For the compound `COC(=O)C1=C(OC(=O)/C=C/c2ccc(Cl)cc2)C(C(=O)OC)[C@]2(O)[C@@H](C(=O)OC)[C@H]1C[C@@H](c1ccccc1)[C@@H]2C(=O)OC` (stereo not given in full), the TGI in assay [1] and in assay [2] was greater than 100 µM in each case. `CN(C)C(=O)OC1=CC2CCC(C1)N2C` (stereo not given): the TGI in assay [1] and in assay [2] was greater than 100 µM in each case. With `COc1cc(COC(=O)N2CC=CC2C(=O)O)c([N+](=O)[O-])cc1OC` (stereo not given), in assay [1], the TGI was greater than 100 µM. Take `CCCCCCSCC/C(C)=N\OC`: the TGI in assay [1] and in assay [2] was greater than 100 µM in each case.

On to `[N-]=[N+]=Nc1ccc2c(c1)Sc1ccccc1N2CCCCN1CCN(Cc2ccc(C(=O)c3ccc(CSCC(N)C(=O)O)cc3)cc2)CC1` (stereo not given), for which the TGI in assay [1] was 44.9 µM; in assay [2] it was 67 µM.
